Results on 15 molecules are retold here after US20250276078A1, “Camptothecin Derivative And Ligand-drug Conjugate Thereof” (Baili-Bio (Chengdu) Pharmaceutical Co., Ltd., priority 2020, published 2025).

Like-named read-outs stand apart in the source and are kept apart here.

The nature of data set [1]: Log P value test (partition coefficient in n-octane (oil) and water). In kind it is physicochemical. From the text:
The log P values are closely related to water solubility, membrane permeability, in vivo ADME process and affinity between the compound and the receptor, which play a key role in the process of the compound's penetration through the biofilm. The log P value was obtained by testing the partition coefficient of camptothecin drug in n-octane (oil) and water, the results are shown as follows: […]

The subject of the next data set is MDA-MB-468. In words: Cell activity test of camptothecin chiral derivatives (MTS). It is filed as cell-based. The method, then:
(§1) Cell-based in vitro experiments are used to determine cell survival, cytotoxicity and programmed cell death induced by camptothecin drugs disclosed in the present invention.
The in vitro efficacy of camptothecin was determined by cell proliferation test. CellTiter 96® Aqueous One Solution Cell Proliferation Assay is commercially available (Promega Corp., Madison, WI). CellTiter96® Aqueous One Solution Cell Proliferation Assay (a) is a test reagent that can be used to measure the number of viable cells from cell proliferation and cytotoxicity tests by colorimetric assay. […] PES has enhanced chemical stability, which allows it to be mixed with MTS to form stable solutions. MTS (Owen's reagent) is reduced by cellular organisms into a variety of colored methylate products, which can be dissolved directly in the medium. This transformation is most likely accomplished with the help of NADPH or NADH produced by dehydrogenase in metabolically active cells. For detection, appropriate amount of CellTiter96® Aqueous One Solution Reagent is added directly into the medium of culture plate hole, incubated for 1-4 hours, and the absorbance value of 490 nm is read with enzyme label instrument.
(§2) The amount of methylate detected at 490 nm is proportional to the number of live cells in the culture. Due to the dissolubility of the methyls of MTS in tissue medium, CellTiter 96® Aqueous One Solution is performed with fewer steps than the MTT or INT methods.
The 96-well plates were uniformly inoculated with appropriate cell density and incubated at 37° C. in carbon dioxide incubator. […] Camptothecin drug was diluted in the medium (initial concentration was 1 uM, 7 times diluted, with 8 concentration points. The last two columns were control group (i.e., cell+medium, no drug treatment) and blank group (i.e., cell-free, only containing medium, for background subtraction). After fully mixing the drug, the drug was added into the corresponding cell hole and incubated at 37° C. in a carbon dioxide incubator for 3 days. After 3 days, 20 ul MTS (Promegm, G3581) were added to each well for 2 h, and a machine reader (from Molecular Device, model: SpectraMAX190) took readings at 490 nM. By detecting the activity of dehydrogenase in mitochondria, IC50 was calculated to evaluate the inhibitory effect of camptothecin on cell proliferation.

For the next data set, the system named is SK-BR-3. The description is as above. In kind it is cell-based. The method, then: as §1
(§3) The in vitro efficacy of camptothecin was determined by cell proliferation test. CellTiter 96® Aqueous One Solution Cell Proliferation Assay is commercially available (Promega Corp., Madison, WI). CellTiter96® Aqueous One Solution Cell Proliferation Assay (a) is a test reagent that can be used to measure the number of viable cells from cell proliferation and cytotoxicity tests by colorimetric assay. The reagent contains a new tetrazolium compound [3-(4, 5-dimethylthiazol-2-yl)-5-(3-carboxymethoxyphenyl)-2-(4-sulfophenyl)-2h-Tetrazolium, inner salt; MTS] and an electron coupling agent (phenazine ethosulfate; PES). PES has enhanced chemical stability, which allows it to be mixed with MTS to form stable solutions. MTS (Owen's reagent) is reduced by cellular organisms into a variety of colored methylate products, which can be dissolved directly in the medium. This transformation is most likely accomplished with the help of NADPH or NADH produced by dehydrogenase in metabolically active cells. For detection, appropriate amount of CellTiter96® Aqueous One Solution Reagent is added directly into the medium of culture plate hole, incubated for 1-4 hours, and the absorbance value of 490 nm is read with enzyme label instrument.
as §2
(§4) The 96-well plates were uniformly inoculated with appropriate cell density and incubated at 37° C. in carbon dioxide incubator. 24 hours later, the cells were confirmed to be normal under the microscope, and camptothecin drugs were administered. Camptothecin drug was diluted in the medium (initial concentration was 1 uM, 7 times diluted, with 8 concentration points. The last two columns were control group (i.e., cell+medium, no drug treatment) and blank group (i.e., cell-free, only containing medium, for background subtraction). After fully mixing the drug, the drug was added into the corresponding cell hole and incubated at 37° C. in a carbon dioxide incubator for 3 days. After 3 days, 20 ul MTS (Promegm, G3581) were added to each well for 2 h, and a machine reader (from Molecular Device, model: SpectraMAX190) took readings at 490 nM. By detecting the activity of dehydrogenase in mitochondria, IC50 was calculated to evaluate the inhibitory effect of camptothecin on cell proliferation. The corresponding test results of camptothecin chiral derivative IC50 (nM) were as follows: PGP-99 T2

A further data set concerns BxPc-3. The description is as above. It is filed as cell-based. The method, then: as §1, §3, §2, §4
For a further data set, the system named is SW620. The data set is described as above. It is filed as cell-based. The method, then: as §1, §3, §2, §4
Another data set deals with A431. Described as above. It is filed as cell-based. The method, then: as §1, §3, §2, §4
Where [2] appears, read: Homo sapiens, MDA-MB-468, 72 h, read-out: IC50.
Setting [3] is: Homo sapiens, 72 h, SK-BR-3, 3 days, read-out: IC50.
The mark [4] stands for this setting: Homo sapiens, 72 h, BxPc-3, 3 days, read-out: IC50.
[5] abbreviates: Homo sapiens, SW-620, 72 h, SW620, 3 days, read-out: IC50.
Setting [6] is: Homo sapiens, A-431, 72 h, A431, 3 days, read-out: IC50.

Regarding `CC[C@@]1(O)C(=O)OCc2c1cc1n(c2=O)Cc2c-1nc1cc(F)c(C)c3c1c2[C@H](NC(=O)CO)CC3` [Compound 2], the logD hydrocarbon water in data set [1] (n-octane (oil) / water, read-out: LogP) turned out to be 1.8. For the same molecule, the IC50 in the data set on MDA-MB-468 (Homo sapiens, MDA-MB-468, 72 h) was 0.002 nM; in the data set with SK-BR-3 (Homo sapiens, SK-BR-3, 72 h) it was 1.78 nM; in the data set with BxPc-3 (Homo sapiens, BXPC-3, 72 h), 4 nM; in the data set on SW620 (Homo sapiens, SW-620, 72 h), 2.89 nM; with A431 (Homo sapiens, A-431, 72 h) it was 4.5 nM.

With `CC[C@@]1(O)C(=O)OCc2c1cc1n(c2=O)Cc2c-1nc1cc(F)c(C)c3c1c2[C@H](NC(=O)[C@H](C)O)CC3` [Compound 3], the logD hydrocarbon water in data set [1] (LogP) was found to be 1.6. In addition, the IC50 in the data set on MDA-MB-468 (setting [2]) was 0.22 nM; in the data set with SK-BR-3 (setting [3]), 15 nM; in the data set on BxPc-3 (setting [4]) it was 3.66 nM; in the data set on SW620 (setting [5]) it was 1.29 nM; in the data set with A431 (setting [6]) it was 4.19 nM.

`CC[C@@]1(O)C(=O)OCc2c1cc1n(c2=O)Cc2c-1nc1cc(F)c(C)c3c1c2[C@H](NC(=O)[C@@H](C)O)CC3` [Compound 4] returned a logD hydrocarbon water in data set [1] (LogP) of 1.9. The values for the IC50 with BxPc-3 (setting [4]), with SW620 (setting [5]) and in the data set on A431 (setting [6]) were 2.85 nM, 0.92 nM and 3.1 nM, respectively.

Take `CC[C@@]1(O)C(=O)OCc2c1cc1n(c2=O)Cc2c-1nc1cc(F)c(C)c3c1c2[C@@H](NC(=O)[C@H](O)C(F)(F)F)CC3` [Compound 5]: the logD hydrocarbon water in data set [1] (LogP) came to 1.9. The IC50 worked out at 8.91 nM in the data set with MDA-MB-468 (setting [2]); 8.49 nM in the data set with SK-BR-3 (setting [3]); 1.73 nM in the data set on BxPc-3 (setting [4]); 0.866 nM in the data set on SW620 (setting [5]); 2.83 nM with A431 (setting [6]).

Molecule `CC[C@@]1(O)C(=O)OCc2c1cc1n(c2=O)Cc2c-1nc1cc(F)c(C)c3c1c2[C@H](NC(=O)[C@@H](O)C(F)(F)F)CC3` [Compound 6] registered a logD hydrocarbon water in data set [1] (LogP) of 1.9. The IC50 is 9.1 nM with SK-BR-3 (setting [3]), 0.416 nM in the data set on BxPc-3 (setting [4]), 0.093 nM in the data set with SW620 (setting [5]) and 0.689 nM with A431 (setting [6]).

Turning to `CC[C@@]1(O)C(=O)OCc2c1cc1n(c2=O)Cc2c-1nc1cc(F)c(C)c3c1c2[C@H](NC(=O)[C@@H](O)C1CC1)CC3` [Compound 7], the logD hydrocarbon water in data set [1] (LogP) is 1.7. The IC50 in the data set on MDA-MB-468 (setting [2]) is less than 0.001 nM; in the data set with SK-BR-3 (setting [3]) it was less than 0.01 nM; in the data set on BxPc-3 (setting [4]), 0.801 nM; in the data set on SW620 (setting [5]), 0.894 nM; with A431 (setting [6]), 0.961 nM.

Molecule `CC[C@@]1(O)C(=O)OCc2c1cc1n(c2=O)Cc2c-1nc1cc(F)c(C)c3c1c2[C@H](NC(=O)[C@H](O)C1CC1)CC3` [Compound 8] came in with a logD hydrocarbon water in data set [1] (LogP) of 1.8. The IC50 is less than 0.001 nM in the data set with MDA-MB-468 (setting [2]); less than 0.01 nM with SK-BR-3 (setting [3]); 1.1 nM in the data set with BxPc-3 (setting [4]); 1.18 nM in the data set on SW620 (setting [5]); 1.84 nM in the data set on A431 (setting [6]).

As for `CC[C@@]1(O)C(=O)OCc2c1cc1n(c2=O)Cc2c-1nc1cc(F)c(C)c3c1c2[C@H](NC(=O)C1(CO)CCC1)CC3` [Compound 9], in data set [1] (LogP), the logD hydrocarbon water is 1.6. Also, the IC50 with MDA-MB-468 (setting [2]) turned out to be 0.525 nM; in the data set with SK-BR-3 (setting [3]), 7.32 nM; with BxPc-3 (setting [4]), 1.07 nM; in the data set with SW620 (setting [5]) it was 1.11 nM; in the data set on A431 (setting [6]), 1.52 nM.

For `CC[C@@]1(O)C(=O)OCc2c1cc1n(c2=O)Cc2c-1nc1cc(F)c(C)c3c1c2[C@@H](NC(=O)[C@H](C)O)CC3` [Compound 11, reference compound], in data set [1] (LogP), the logD hydrocarbon water is 2.5.

For the molecule `CC[C@@]1(O)C(=O)OCc2c1cc1n(c2=O)Cc2c-1nc1cc(F)c(C)c3c1c2[C@@H](NC(=O)[C@@H](C)O)CC3` [Compound 12, reference compound], the logD hydrocarbon water in data set [1] (LogP) is 2.5.

Molecule `CC[C@@]1(O)C(=O)OCc2c1cc1n(c2=O)Cc2c-1nc1cc(F)c(C)c3c1c2[C@@H](NC(=O)[C@H](O)C(F)(F)F)CC3` [Compound 13, reference compound] showed a LogP in data set [1] of 2.6.

The molecule `CC[C@@]1(O)C(=O)OCc2c1cc1n(c2=O)Cc2c-1nc1cc(F)c(C)c3c1c2[C@@H](NC(=O)[C@@H](O)C(F)(F)F)CC3` [Compound 14, reference compound] yielded a logD hydrocarbon water in data set [1] (LogP) of 2.6.

In the case of `CC[C@@]1(O)C(=O)OCc2c1cc1n(c2=O)Cc2c-1nc1cc(F)c(C)c3c1c2[C@@H](NC(=O)[C@@H](O)C1CC1)CC3` [Compound 15, reference compound], the logD hydrocarbon water in data set [1] (LogP) stood at 2.7.

Take `CC[C@@]1(O)C(=O)OCc2c1cc1n(c2=O)Cc2c-1nc1cc(F)c(C)c3c1c2[C@@H](NC(=O)[C@H](O)C1CC1)CC3` [Compound 16, reference compound]: the logD hydrocarbon water in data set [1] (LogP) turned out to be 2.6.

With `CC[C@@]1(O)C(=O)OCc2c1cc1n(c2=O)Cc2c-1nc1cc(F)c(C)c3c1c2[C@@H](NC(=O)CO)CC3` [Dxd, reference compound], the IC50 with MDA-MB-468 (MDA-MB-468, 3 days, read-out: IC50) was 10.7 nM; in the data set with SK-BR-3 (SK-BR-3, 3 days, read-out: IC50), 19.7 nM; in the data set on BxPc-3 (BxPc-3, 3 days, read-out: IC50), 3.97 nM; in the data set on SW620 (SW620, 3 days, read-out: IC50), 1.95 nM; in the data set with A431 (A431, 3 days, read-out: IC50), 4.99 nM.

The IC50 is the concentration that gives 50% inhibition. The term LogP denotes the decadic logarithm of the partition coefficient of the neutral form, usually between octanol and water. A lower LogP goes with lower lipophilicity.
